In PubChem BioAssay (NCI):
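Each compound was tested at five concentrations against cells in 96-well plates for 48 hours. GI50: concentration for 50% inhibition of growth. TGI is the concentration that stops growth completely.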

Experiments:
Assay in all cases: inhibition of tumour cell growth, NCI panel, 48 h
786-0 renal = tested on: 786-0 renal
A498 renal = tested on: A498 renal
A549 NSCLC = tested on: A549 NSCLC
ACHN renal = tested on: ACHN renal
BT-549 breast = tested on: BT-549 breast
CCRF-CEM leukemia = tested on: CCRF-CEM leukemia
COLO 205 colon = tested on: COLO 205 colon
DU-145 prostate = tested on: DU-145 prostate
EKVX NSCLC = tested on: EKVX NSCLC
HCC-2998 colon = tested on: HCC-2998 colon
HCT-15 colon = tested on: HCT-15 colon
HL-60(TB) leukemia = tested on: HL-60(TB) leukemia
HOP-62 NSCLC = tested on: HOP-62 NSCLC
HOP-92 NSCLC = tested on: HOP-92 NSCLC
HS 578T breast = tested on: HS 578T breast
HT29 colon = tested on: HT29 colon
IGROV1 ovarian = tested on: IGROV1 ovarian
K-562 leukemia = tested on: K-562 leukemia
KM12 colon = tested on: KM12 colon
LOX IMVI melanoma = tested on: LOX IMVI melanoma
M14 melanoma = tested on: M14 melanoma
MALME-3M melanoma = tested on: MALME-3M melanoma
MDA-MB-231 breast = tested on: MDA-MB-231 breast
MDA-MB-435 = tested on: MDA-MB-435
MOLT-4 leukemia = tested on: MOLT-4 leukemia
NCI-H226 lung = tested on: NCI-H226 lung
NCI-H23 lung = tested on: NCI-H23 lung
NCI-H460 lung = tested on: NCI-H460 lung
NCI-H522 lung = tested on: NCI-H522 lung
NCI/ADR-RES ovarian = tested on: NCI/ADR-RES ovarian
OVCAR-3 ovarian = tested on: OVCAR-3 ovarian
OVCAR-4 ovarian = tested on: OVCAR-4 ovarian
OVCAR-5 ovarian = tested on: OVCAR-5 ovarian
OVCAR-8 ovarian = tested on: OVCAR-8 ovarian
PC-3 prostate = tested on: PC-3 prostate
RPMI-8226 leukemia = tested on: RPMI-8226 leukemia
RXF 393 renal = tested on: RXF 393 renal
SF-268 CNS = tested on: SF-268 CNS
SF-295 CNS = tested on: SF-295 CNS
SF-539 CNS = tested on: SF-539 CNS
SK-MEL-2 melanoma = tested on: SK-MEL-2 melanoma
SK-MEL-28 melanoma = tested on: SK-MEL-28 melanoma
SK-MEL-5 melanoma = tested on: SK-MEL-5 melanoma
SK-OV-3 ovarian = tested on: SK-OV-3 ovarian
SN12C renal = tested on: SN12C renal
SNB-19 CNS = tested on: SNB-19 CNS
SNB-75 CNS = tested on: SNB-75 CNS
SR leukemia = tested on: SR leukemia
SW-620 colon = tested on: SW-620 colon
T-47D breast = tested on: T-47D breast
TK-10 renal = tested on: TK-10 renal
U251 CNS = tested on: U251 CNS
UACC-257 melanoma = tested on: UACC-257 melanoma
UACC-62 melanoma = tested on: UACC-62 melanoma
UO-31 renal = tested on: UO-31 renal

COc1ccc2nc(-c3ccc(Cl)cc3)cc(-c3nnc(SCC(=O)Nc4ccc(/C(C)=N\O)cc4)o3)c2c1
GI50 (786-0 renal): 1020 nM
TGI (786-0 renal): 3040 nM
GI50 (A498 renal): 2940 nM
TGI (A498 renal): 11000 nM
GI50 (A549 NSCLC): 1230 nM
TGI (A549 NSCLC): 3210 nM
GI50 (ACHN renal): 1850 nM
TGI (ACHN renal): 8040 nM
GI50 (BT-549 breast): 3700 nM
TGI (BT-549 breast): 18900 nM
GI50 (CCRF-CEM leukemia): 2490 nM
TGI (CCRF-CEM leukemia): > 50000 nM
GI50 (COLO 205 colon): 1150 nM
TGI (COLO 205 colon): 3530 nM
GI50 (DU-145 prostate): 1520 nM
TGI (DU-145 prostate): 5530 nM
GI50 (EKVX NSCLC): 3010 nM
TGI (EKVX NSCLC): 15300 nM
GI50 (HCC-2998 colon): 2980 nM
TGI (HCC-2998 colon): 31500 nM
GI50 (HCT-15 colon): 1880 nM
TGI (HCT-15 colon): 16400 nM
GI50 (HL-60(TB) leukemia): > 50000 nM
TGI (HL-60(TB) leukemia): > 50000 nM
GI50 (HOP-62 NSCLC): 1630 nM
TGI (HOP-62 NSCLC): 7000 nM
GI50 (HOP-92 NSCLC): 1770 nM
TGI (HOP-92 NSCLC): 5260 nM
GI50 (HS 578T breast): 2770 nM
TGI (HS 578T breast): 17900 nM
GI50 (HT29 colon): 1400 nM
TGI (HT29 colon): 5540 nM
GI50 (IGROV1 ovarian): 3930 nM
TGI (IGROV1 ovarian): 20600 nM
GI50 (K-562 leukemia): 2830 nM
TGI (K-562 leukemia): > 50000 nM
GI50 (KM12 colon): 1530 nM
TGI (KM12 colon): 5460 nM
GI50 (LOX IMVI melanoma): 1760 nM
TGI (LOX IMVI melanoma): 6920 nM
GI50 (M14 melanoma): 1810 nM
TGI (M14 melanoma): 7580 nM
GI50 (MALME-3M melanoma): 1280 nM
TGI (MALME-3M melanoma): 3970 nM
GI50 (MDA-MB-231 breast): 2050 nM
TGI (MDA-MB-231 breast): 8340 nM
GI50 (MDA-MB-435): 1260 nM
TGI (MDA-MB-435): 4080 nM
GI50 (MOLT-4 leukemia): 2180 nM
TGI (MOLT-4 leukemia): > 50000 nM
GI50 (NCI-H226 lung): 3860 nM
TGI (NCI-H226 lung): 14400 nM
GI50 (NCI-H23 lung): 1380 nM
TGI (NCI-H23 lung): 4300 nM
GI50 (NCI-H460 lung): 1100 nM
TGI (NCI-H460 lung): 2320 nM
GI50 (NCI-H522 lung): 1200 nM
TGI (NCI-H522 lung): 3830 nM
GI50 (NCI/ADR-RES ovarian): 1290 nM
TGI (NCI/ADR-RES ovarian): 3750 nM
GI50 (OVCAR-3 ovarian): 1580 nM
TGI (OVCAR-3 ovarian): 5470 nM
GI50 (OVCAR-4 ovarian): 904 nM
TGI (OVCAR-4 ovarian): 1840 nM
GI50 (OVCAR-5 ovarian): 2060 nM
TGI (OVCAR-5 ovarian): 10200 nM
GI50 (OVCAR-8 ovarian): 1150 nM
TGI (OVCAR-8 ovarian): 2780 nM
GI50 (PC-3 prostate): 1290 nM
TGI (PC-3 prostate): 2970 nM
GI50 (RPMI-8226 leukemia): 2180 nM
TGI (RPMI-8226 leukemia): > 50000 nM
GI50 (RXF 393 renal): 1510 nM
TGI (RXF 393 renal): 5970 nM
GI50 (SF-268 CNS): 1440 nM
TGI (SF-268 CNS): 5060 nM
GI50 (SF-295 CNS): 1090 nM
TGI (SF-295 CNS): 3080 nM
GI50 (SF-539 CNS): 3000 nM
TGI (SF-539 CNS): 10700 nM
GI50 (SK-MEL-2 melanoma): 2460 nM
TGI (SK-MEL-2 melanoma): 9770 nM
GI50 (SK-MEL-28 melanoma): 1810 nM
TGI (SK-MEL-28 melanoma): 7630 nM
GI50 (SK-MEL-5 melanoma): 1710 nM
TGI (SK-MEL-5 melanoma): 7520 nM
GI50 (SK-OV-3 ovarian): 6230 nM
TGI (SK-OV-3 ovarian): 18700 nM
GI50 (SN12C renal): 1800 nM
TGI (SN12C renal): 7290 nM
GI50 (SNB-19 CNS): 1180 nM
TGI (SNB-19 CNS): 3090 nM
GI50 (SNB-75 CNS): 1080 nM
TGI (SNB-75 CNS): 6340 nM
GI50 (SR leukemia): 1720 nM
TGI (SR leukemia): > 50000 nM
GI50 (SW-620 colon): 1150 nM
TGI (SW-620 colon): 2540 nM
GI50 (T-47D breast): 981 nM
TGI (T-47D breast): 3970 nM
GI50 (TK-10 renal): 1610 nM
TGI (TK-10 renal): 8050 nM
GI50 (U251 CNS): 974 nM
TGI (U251 CNS): 1900 nM
GI50 (UACC-257 melanoma): 2160 nM
TGI (UACC-257 melanoma): 9510 nM
GI50 (UACC-62 melanoma): 2890 nM
TGI (UACC-62 melanoma): 9930 nM
GI50 (UO-31 renal): 3260 nM
TGI (UO-31 renal): 20500 nM
